# Results reported in ChEMBL document CHEMBL5528066, “Discovery of Novel N-(Anthracen-9-ylmethyl) Benzamide Derivatives as ZNF207 Inhibitors Promising in Treating Glioma” (J Med Chem, 2024).
# The source made the active and inactive calls. No cut-off for these calls is given here.
# Experiments:
# [1] = test system: Hs 683; experiment: Inhibition of colony formation in human Hs 683 cells assessed as reduction in colony area at 5 uM treated on day 1 and measured after 14 days by crystal violet staining based microscopic analysis relative to control; type: functional; details: Hs 683, 336 h, time 14 day
# [2] = test system: LN-229; experiment: Antitumor activity against human LN-229 cells xenografted in BALB/c nude mouse assessed as reduction in proportion of Ki-67 positive cells at 15 to 45 mg/kg, po administered once a day and measured after 49 days by immunohistochemistry analysis; type: functional, organism-based; details: dose 15-45 mg/kg, time 49.0 day
# [3] = test system: Hs 683; experiment: Inhibition of sphere formation in human Hs 683 cells at 2 uM measured after 10 days in well containing 10 cells by microscopic analysis; type: functional, cell-based; details: time 10.0 day
# [4] = test system: U-251; experiment: Inhibition of sphere formation in human U-251MG cells assessed as fold reduction in sphere initiating frequency at 4 uM incubated for 10 days by microscopic analysis relative to control; type: functional; details: time 10 day
# [5] = test system: LN-229; experiment: Inhibition of cell migration in human LN-229 cells assessed as reduction in wound closure ability measured after 24 to 48 hrs by wound healing assay; type: functional, cell-based; details: dose 2.5-10 µM, time 24-48 hrs
# [6] = test system: U-251; experiment: Inhibition of sphere formation in human U-251MG cells assessed as fold reduction in sphere initiating frequency at 1 uM incubated for 10 days by microscopic analysis relative to control; type: functional; details: time 10 day
# [7] = test system: H4; experiment: Inhibition of sphere formation in human H4 cells at 2 uM measured after 10 days in well containing 100 cells by microscopic analysis; type: functional, cell-based; details: time 10.0 day
# [8] = test system: LN-229; experiment: Inhibition of sphere formation in human LN-229 cells at 2 uM measured after 10 days in well containing 10000 cells by microscopic analysis; type: functional, cell-based; details: time 10.0 day
# [9] = test system: LN-229; experiment: Inhibition of sphere formation in human LN-229 cells at 8 uM measured after 10 days in well containing 1 cells by microscopic analysis; type: functional, cell-based; details: time 10.0 day
# [10] = test system: MKN-45; experiment: Antiproliferative activity against human MKN-45 cells assessed as inhibition of cell growth incubated for 72 hrs by CCK-8 assay; type: functional, cell-based; details: MKN-45, 72 h
# [11] = test system: U-251; experiment: Inhibition of colony formation in human U-251MG cells assessed as reduction in colony area at 2.5 uM treated on day 1 and measured after 14 days by crystal violet staining based microscopic analysis relative to control; type: functional; details: U-251, 336 h, time 14 day
# [12] = test system: U-251; experiment: Inhibition of sphere formation in human U-251MG cells at 4 uM measured after 10 days in well containing 1 cells by microscopic analysis; type: functional, cell-based; details: time 10.0 day
# [13] = Toxicity in female C57BL/6 mouse assessed as change in cellular structure of kidney at 45 mg/kg, po administered once a day for 2 weeks by H and E staining based analysis; type: organism-based; details: in vivo, 336 h
# [14] = test system: HeLa; experiment: Antiproliferative activity against human HeLa cells assessed as inhibition of cell growth incubated for 72 hrs by CCK-8 assay; type: functional, cell-based
# [15] = test system: Hs 683; experiment: Inhibition of sphere formation in human Hs 683 cells at 4 uM measured after 10 days in well containing 100 cells by microscopic analysis; type: functional, cell-based; details: time 10.0 day
# [16] = test system: Hs 683; experiment: Inhibition of sphere formation in human Hs 683 cells at 1 uM measured after 10 days in well containing 10000 cells by microscopic analysis; type: functional, cell-based; details: time 10.0 day
# [17] = test system: LN-229; experiment: Downregulation of SOX2 protein expression in human LN-229 cells at 2 to 4 uM incubated for 48 hrs by Western blot analysis; type: functional, cell-based; details: dose 2-4 µM
# [18] = Drug concentration in male Sprague-Dawley rat intestine at 45 mg/kg, po measured after 8 hrs by LC-MS/MS analysis; type: ADME, organism-based; details: read-out: Ct
# [19] = test system: H4; experiment: Inhibition of colony formation in human H4 cells assessed as reduction in number of cell clones treated on day 1 and measured after 14 days by crystal violet staining based microscopic analysis; type: functional; details: dose 0.625-5 µM, time 14.0 day
# [20] = test system: LN-229; experiment: Inhibition of sphere formation in human LN-229 cells at 4 uM measured after 10 days in well containing 10 cells by microscopic analysis; type: functional, cell-based; details: time 10.0 day
# [21] = test system: Hs 683; experiment: Inhibition of sphere formation in human Hs 683 cells at 1 uM measured after 10 days in well containing 1000 cells by microscopic analysis; type: functional, cell-based; details: time 10.0 day
# [22] = test system: LN-229; experiment: Inhibition of sphere formation in human LN-229 cells incubated for 168 hrs by microscopic analysis; type: functional, cell-based; details: LN-229, 168 h
# [23] = test system: H4; experiment: Inhibition of sphere formation in human H4 cells at 1 uM measured after 10 days in well containing 1 cells by microscopic analysis; type: functional, cell-based; details: time 10.0 day
# [24] = Toxicity in female C57BL/6 mouse assessed as change in cellular structure of stomach at 45 mg/kg, po administered once a day for 2 weeks by H and E staining based analysis; type: organism-based; details: in vivo, 336 h
# [25] = test system: U-937; experiment: Antiproliferative activity against human U-937 cells assessed as inhibition of cell growth incubated for 72 hrs by CCK-8 assay; type: functional, cell-based; details: U-937, 72 h
# [26] = test system: Hs 683; experiment: Inhibition of sphere formation in human Hs 683 cells at 2 uM measured after 10 days in well containing 10000 cells by microscopic analysis; type: functional, cell-based; details: time 10.0 day
# [27] = test system: U-251; experiment: Inhibition of colony formation in human U-251MG cells assessed as reduction in number of cell clones treated on day 1 and measured after 14 days by crystal violet staining based microscopic analysis; type: functional; details: dose 0.625-5 µM, time 14.0 day
# [28] = test system: LN-229-Luc; experiment: Antitumor activity against human Ln-229-Luc cells xenografted in BALB/c nude mouse assessed as reduction in tumor load at 45 mg/kg, po administered once a day and measured on day 25 by bioluminescence imaging analysis relative to control; type: functional; details: time 25 day
# [29] = test system: LN-229; experiment: Inhibition of cell migration in human LN-229 cells assessed as reduction in wound closure ability at 5 uM measured after 48 hrs by wound healing assay relative to control; type: functional
# [30] = test system: LN-229; experiment: Inhibition of sphere formation in human LN-229 cells at 1 uM measured after 10 days in well containing 10000 cells by microscopic analysis; type: functional, cell-based; details: time 10.0 day
# [31] = target: BUB3-interacting and GLEBS motif-containing protein ZNF207 (Homo sapiens, UniProt O43670); experiment: Binding affinity to ZNF207 in human H4 cells assessed as thermal stabilization by measuring melting temperature at 30 uM incubated for 3 hrs by CETSA (reference value: 48.9 degreeC); type: cell-based
# Chain of BUB3-interacting and GLEBS motif-containing protein ZNF207 (O43670 whole entry): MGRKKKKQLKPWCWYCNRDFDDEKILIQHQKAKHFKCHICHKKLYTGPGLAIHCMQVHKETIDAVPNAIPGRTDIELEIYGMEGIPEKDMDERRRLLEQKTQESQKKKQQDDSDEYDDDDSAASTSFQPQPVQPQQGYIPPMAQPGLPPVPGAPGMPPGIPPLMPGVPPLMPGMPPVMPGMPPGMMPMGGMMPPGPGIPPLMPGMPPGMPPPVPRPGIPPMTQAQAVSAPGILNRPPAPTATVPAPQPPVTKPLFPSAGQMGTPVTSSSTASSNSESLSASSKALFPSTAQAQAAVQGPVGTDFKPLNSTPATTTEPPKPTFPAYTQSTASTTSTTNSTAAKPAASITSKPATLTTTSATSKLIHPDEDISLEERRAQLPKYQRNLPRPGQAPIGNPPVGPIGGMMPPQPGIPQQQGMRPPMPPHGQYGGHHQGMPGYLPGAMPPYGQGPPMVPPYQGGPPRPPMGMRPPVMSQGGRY
# [32] = test system: Hs 683; experiment: Inhibition of sphere formation in human Hs 683 cells at 8 uM measured after 10 days in well containing 100 cells by microscopic analysis; type: functional, cell-based; details: time 10.0 day
# [33] = test system: LN-229; experiment: Inhibition of colony formation in human LN-229 cells assessed as reduction in number of cell clones treated on day 1 and measured after 14 days by crystal violet staining based microscopic analysis; type: functional; details: dose 0.625-5 µM, time 14.0 day
# [34] = test system: U-251; experiment: Inhibition of sphere formation in human U-251MG cells at 4 uM measured after 10 days in well containing 10 cells by microscopic analysis; type: functional, cell-based; details: time 10.0 day
# [35] = test system: U-251; experiment: Inhibition of sphere formation in human U-251MG cells assessed as fold reduction in sphere initiating frequency at 2 uM incubated for 10 days by microscopic analysis relative to control; type: functional; details: time 10 day
# [36] = test system: LN-229; experiment: Inhibition of sphere formation in human LN-229 cells assessed as fold reduction in sphere initiating frequency at 8 uM incubated for 10 days by microscopic analysis relative to control; type: functional; details: time 10 day
# [37] = test system: LN-229; experiment: Inhibition of sphere formation in human LN-229 cells assessed as fold reduction in sphere initiating frequency at 4 uM incubated for 10 days by microscopic analysis relative to control; type: functional; details: time 10 day
smiles,measurement,setting,value
N#CC1(C(=O)NCCC2CCN(Cc3ccccc3)CC2)CC2(Br)c3ccccc3C1c1ccccc12 (racemic),inhibition at 5 µM,[1],100%
same,Activity,[2],Active
same,inhibition,[3],Active
same,fold change (FC),[4],78.18
same,inhibition,[5],Dose-Dependent Effect
same,fold change (FC),[6],2.78
same,inhibition,[7],Active
same,inhibition,[8],inactive
same,inhibition,[9],Active
same,IC50,[10],3.84 µM
same,inhibition at 2.5 µM,[11],100%
same,inhibition,[12],Active
same,Activity,[13],Non-Toxic
same,IC50,[14],8.13 µM
same,inhibition,[15],Active
same,inhibition,[16],inactive
same,Activity,[17],Active
same,concentration at 8 h,[18],688 ng/g
same,inhibition,[19],Dose-Dependent Effect
same,inhibition,[20],Active
same,inhibition,[21],inactive
same,IC50,[22],1.23 µM
same,inhibition,[23],Active
same,Activity,[24],Non-Toxic
same,IC50,[25],14 µM
same,inhibition,[26],inactive
same,inhibition,[27],Dose-Dependent Effect
same,fold change (FC),[28],7.6
same,inhibition at 5 µM,[29],28.4%
same,inhibition,[30],inactive
same,Tm,[31],50.8 °C
same,inhibition,[32],Active
same,inhibition,[33],Dose-Dependent Effect
same,inhibition,[34],Active
same,fold change (FC),[35],35.63
same,fold change (FC),[36],107.58
same,fold change (FC),[37],36.42
